Measurements: ChEMBL document CHEMBL1201862, “PubChem BioAssay data set” (2004)
The source made the active and inactive calls.

Tests used:
Fatty acid synthase [1] = target: T1, Fatty acid synthase (Homo sapiens, UniProt P49327); test: FAS thioesterase domain inhibitors, dose response, biochemical, endpoint fluorescence intensity, uHTS hits (AID 624327); assay type: functional;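 also: fluorescence from hydrolysis of an O-methyl fluorescein acyl ester substrate by the enzyme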
Fatty acid synthase [2] = target: T1, Fatty acid synthase; test: FAS thioesterase domain inhibitors, dose response, biochemical, kinetic fluorescence intensity (AID 624326); assay type: functional;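 also: rate of fluorescence rise from hydrolysis of a fluorogenic O-methyl fluorescein ester substrate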
Cytochrome P450 1A2 = target: T2, Cytochrome P450 1A2 (Homo sapiens, UniProt P05177);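 also: PubChem cytochrome P450 panel assay, CYP1A2 panel member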
T2 sequence (P05177 whole entry): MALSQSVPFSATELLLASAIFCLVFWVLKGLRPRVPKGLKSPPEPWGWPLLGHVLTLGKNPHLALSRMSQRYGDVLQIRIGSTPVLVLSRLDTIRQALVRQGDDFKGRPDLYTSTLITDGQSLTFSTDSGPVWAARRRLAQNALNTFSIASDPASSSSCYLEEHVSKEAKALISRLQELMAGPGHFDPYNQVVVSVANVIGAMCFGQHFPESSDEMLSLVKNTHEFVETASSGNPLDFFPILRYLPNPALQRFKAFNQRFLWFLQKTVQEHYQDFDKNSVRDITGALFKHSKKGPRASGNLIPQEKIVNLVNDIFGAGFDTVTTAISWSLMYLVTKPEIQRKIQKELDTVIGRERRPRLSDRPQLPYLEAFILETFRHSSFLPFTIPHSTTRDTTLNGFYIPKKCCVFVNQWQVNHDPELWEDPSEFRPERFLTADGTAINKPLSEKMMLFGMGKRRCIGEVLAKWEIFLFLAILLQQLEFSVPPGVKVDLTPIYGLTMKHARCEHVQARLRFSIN

[3] = target: T3, Heat shock factor protein 1 (Mus musculus, UniProt P38532); test: HSF1 potentiators in luciferase reporter cells, confirmation, cell-based, NIH3T3, luminescence, dose retest (AID 435004); assay type: functional;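 also: stress induced by proteasome inhibitor MG132 added 30 min after compound; luciferase reporter driven by HSF1 response element in NIH3T3 cells; actives raise luminescence as potentiators of the MG132 stress response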
T3 sequence (P38532 whole entry): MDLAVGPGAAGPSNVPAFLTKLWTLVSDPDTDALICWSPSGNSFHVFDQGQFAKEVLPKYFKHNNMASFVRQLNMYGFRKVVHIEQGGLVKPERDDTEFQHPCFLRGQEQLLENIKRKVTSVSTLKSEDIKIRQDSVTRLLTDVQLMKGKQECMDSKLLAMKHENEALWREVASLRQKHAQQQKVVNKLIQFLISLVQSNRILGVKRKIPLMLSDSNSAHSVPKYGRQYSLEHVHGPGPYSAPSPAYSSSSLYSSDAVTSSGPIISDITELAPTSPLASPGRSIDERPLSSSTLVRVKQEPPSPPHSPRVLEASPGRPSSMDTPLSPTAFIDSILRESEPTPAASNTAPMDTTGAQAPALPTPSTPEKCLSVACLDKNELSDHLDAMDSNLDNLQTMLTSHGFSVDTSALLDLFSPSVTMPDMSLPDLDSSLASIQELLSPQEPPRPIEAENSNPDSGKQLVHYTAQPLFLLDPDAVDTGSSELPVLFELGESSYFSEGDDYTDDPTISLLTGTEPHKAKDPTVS

[4] = HepG2 cell cytotoxicity, dose response, cytotoxicity control for Shn3 inhibitor project, CellTiter-Glo, cherry-picked (AID 624134); assay type: functional, cell-based
[5] = control 3'UTR Renilla luciferase suppression, dose response, counter-screen for Shn3 inhibitor project, cell-based, Clone20-Shn3RL, cherry-picked (AID 624133); assay type: functional
[6] = Shn3 3'UTR reporter inhibitors, dose response, cell-based, Clone20 osteoblasts, firefly luciferase, cherry-picked (AID 624132); assay type: functional;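 also: firefly luciferase luminescence from reporter carrying the Shn3 3'UTR in osteoblasts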
[7] = target: T4, Replicative DNA helicase DnaB (Mycobacterium tuberculosis, UniProt P9WMR3); test: DnaB intein splicing inhibitors, dose response, biochemical, cell-free fluorescence (AID 449749); assay type: functional
T4 sequence (P9WMR3 whole entry): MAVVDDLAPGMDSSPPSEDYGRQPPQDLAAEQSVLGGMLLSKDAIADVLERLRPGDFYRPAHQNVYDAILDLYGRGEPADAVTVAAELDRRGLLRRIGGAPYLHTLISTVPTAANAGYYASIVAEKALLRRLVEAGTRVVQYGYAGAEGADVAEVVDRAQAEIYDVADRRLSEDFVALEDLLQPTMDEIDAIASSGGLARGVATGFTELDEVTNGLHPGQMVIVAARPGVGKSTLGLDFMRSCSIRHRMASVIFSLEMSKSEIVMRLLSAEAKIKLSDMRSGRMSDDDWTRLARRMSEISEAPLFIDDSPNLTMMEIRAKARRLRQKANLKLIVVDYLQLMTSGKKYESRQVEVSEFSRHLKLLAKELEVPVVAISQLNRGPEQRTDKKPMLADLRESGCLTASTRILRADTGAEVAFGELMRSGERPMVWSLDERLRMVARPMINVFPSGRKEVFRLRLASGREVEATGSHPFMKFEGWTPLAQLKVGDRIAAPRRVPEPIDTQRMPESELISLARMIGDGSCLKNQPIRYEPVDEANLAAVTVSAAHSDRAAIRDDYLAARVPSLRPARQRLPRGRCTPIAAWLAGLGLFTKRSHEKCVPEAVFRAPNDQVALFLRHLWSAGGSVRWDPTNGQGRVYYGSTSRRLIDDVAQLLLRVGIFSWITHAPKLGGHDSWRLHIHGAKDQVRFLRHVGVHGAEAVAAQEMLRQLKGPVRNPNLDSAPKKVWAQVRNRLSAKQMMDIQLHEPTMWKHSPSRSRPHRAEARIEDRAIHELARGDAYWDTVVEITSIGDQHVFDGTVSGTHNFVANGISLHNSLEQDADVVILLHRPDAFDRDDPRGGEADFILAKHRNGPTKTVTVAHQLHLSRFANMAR

Protein RecA = target: T5, Protein RecA (Mycobacterium tuberculosis, UniProt P9WHJ3); test: Fluorescence Cell-Free Homogeneous Dose Retest to Identify Inhibitors of RecA-Intein Splicing Activity. [Related pubchem assays (depositor defined):AID2097, AID2223, AID489010, AID492950]; assay type: functional
T5 sequence (P9WHJ3 whole entry): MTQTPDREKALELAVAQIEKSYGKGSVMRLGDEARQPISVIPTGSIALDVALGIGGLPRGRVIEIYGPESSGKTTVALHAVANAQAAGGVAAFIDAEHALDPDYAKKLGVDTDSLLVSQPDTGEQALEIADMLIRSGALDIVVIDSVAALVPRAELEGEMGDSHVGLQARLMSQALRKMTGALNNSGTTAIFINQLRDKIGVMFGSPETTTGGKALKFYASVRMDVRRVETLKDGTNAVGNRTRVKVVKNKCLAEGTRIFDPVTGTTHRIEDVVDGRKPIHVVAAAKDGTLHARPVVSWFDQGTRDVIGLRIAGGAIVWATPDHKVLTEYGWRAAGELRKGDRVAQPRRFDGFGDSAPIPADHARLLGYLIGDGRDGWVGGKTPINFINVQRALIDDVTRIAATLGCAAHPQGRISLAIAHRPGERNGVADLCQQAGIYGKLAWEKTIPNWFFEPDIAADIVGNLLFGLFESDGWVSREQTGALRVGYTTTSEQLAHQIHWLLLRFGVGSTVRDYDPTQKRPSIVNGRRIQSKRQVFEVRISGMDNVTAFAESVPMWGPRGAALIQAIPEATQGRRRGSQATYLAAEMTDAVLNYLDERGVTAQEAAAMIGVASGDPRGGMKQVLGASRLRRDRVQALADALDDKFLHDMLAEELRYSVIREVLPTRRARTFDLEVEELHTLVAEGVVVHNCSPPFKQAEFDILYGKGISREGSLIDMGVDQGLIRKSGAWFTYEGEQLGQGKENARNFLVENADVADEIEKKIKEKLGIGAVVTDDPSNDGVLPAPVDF

[8] = HEp-2 cell cytotoxicity, dose response, cytotoxicity control for RSV inhibitor project, HTS (AID 2410); assay type: functional; conditions: human respiratory syncytial virus
Protein skinhead-1 = target: T6, Protein skinhead-1 (Caenorhabditis elegans, UniProt P34707); assay type: functional
T6 sequence (P34707 whole entry): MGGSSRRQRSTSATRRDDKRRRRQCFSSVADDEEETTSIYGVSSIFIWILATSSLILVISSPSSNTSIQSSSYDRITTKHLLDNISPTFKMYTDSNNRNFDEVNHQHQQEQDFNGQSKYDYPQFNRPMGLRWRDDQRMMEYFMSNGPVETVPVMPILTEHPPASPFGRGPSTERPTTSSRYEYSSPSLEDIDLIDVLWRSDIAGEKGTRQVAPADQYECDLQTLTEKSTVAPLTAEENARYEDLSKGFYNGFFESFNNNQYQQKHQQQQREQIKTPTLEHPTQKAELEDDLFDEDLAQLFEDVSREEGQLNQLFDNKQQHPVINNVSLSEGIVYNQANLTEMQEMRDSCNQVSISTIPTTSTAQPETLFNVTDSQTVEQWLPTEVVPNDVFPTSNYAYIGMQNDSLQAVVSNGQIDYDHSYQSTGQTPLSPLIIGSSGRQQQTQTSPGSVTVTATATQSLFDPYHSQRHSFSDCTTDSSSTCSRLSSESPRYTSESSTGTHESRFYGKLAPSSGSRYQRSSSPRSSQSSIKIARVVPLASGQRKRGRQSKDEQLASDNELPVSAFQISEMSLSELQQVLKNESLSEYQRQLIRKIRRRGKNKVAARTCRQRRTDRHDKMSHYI

T1 sequence (P49327 whole entry, the tested form may be a part): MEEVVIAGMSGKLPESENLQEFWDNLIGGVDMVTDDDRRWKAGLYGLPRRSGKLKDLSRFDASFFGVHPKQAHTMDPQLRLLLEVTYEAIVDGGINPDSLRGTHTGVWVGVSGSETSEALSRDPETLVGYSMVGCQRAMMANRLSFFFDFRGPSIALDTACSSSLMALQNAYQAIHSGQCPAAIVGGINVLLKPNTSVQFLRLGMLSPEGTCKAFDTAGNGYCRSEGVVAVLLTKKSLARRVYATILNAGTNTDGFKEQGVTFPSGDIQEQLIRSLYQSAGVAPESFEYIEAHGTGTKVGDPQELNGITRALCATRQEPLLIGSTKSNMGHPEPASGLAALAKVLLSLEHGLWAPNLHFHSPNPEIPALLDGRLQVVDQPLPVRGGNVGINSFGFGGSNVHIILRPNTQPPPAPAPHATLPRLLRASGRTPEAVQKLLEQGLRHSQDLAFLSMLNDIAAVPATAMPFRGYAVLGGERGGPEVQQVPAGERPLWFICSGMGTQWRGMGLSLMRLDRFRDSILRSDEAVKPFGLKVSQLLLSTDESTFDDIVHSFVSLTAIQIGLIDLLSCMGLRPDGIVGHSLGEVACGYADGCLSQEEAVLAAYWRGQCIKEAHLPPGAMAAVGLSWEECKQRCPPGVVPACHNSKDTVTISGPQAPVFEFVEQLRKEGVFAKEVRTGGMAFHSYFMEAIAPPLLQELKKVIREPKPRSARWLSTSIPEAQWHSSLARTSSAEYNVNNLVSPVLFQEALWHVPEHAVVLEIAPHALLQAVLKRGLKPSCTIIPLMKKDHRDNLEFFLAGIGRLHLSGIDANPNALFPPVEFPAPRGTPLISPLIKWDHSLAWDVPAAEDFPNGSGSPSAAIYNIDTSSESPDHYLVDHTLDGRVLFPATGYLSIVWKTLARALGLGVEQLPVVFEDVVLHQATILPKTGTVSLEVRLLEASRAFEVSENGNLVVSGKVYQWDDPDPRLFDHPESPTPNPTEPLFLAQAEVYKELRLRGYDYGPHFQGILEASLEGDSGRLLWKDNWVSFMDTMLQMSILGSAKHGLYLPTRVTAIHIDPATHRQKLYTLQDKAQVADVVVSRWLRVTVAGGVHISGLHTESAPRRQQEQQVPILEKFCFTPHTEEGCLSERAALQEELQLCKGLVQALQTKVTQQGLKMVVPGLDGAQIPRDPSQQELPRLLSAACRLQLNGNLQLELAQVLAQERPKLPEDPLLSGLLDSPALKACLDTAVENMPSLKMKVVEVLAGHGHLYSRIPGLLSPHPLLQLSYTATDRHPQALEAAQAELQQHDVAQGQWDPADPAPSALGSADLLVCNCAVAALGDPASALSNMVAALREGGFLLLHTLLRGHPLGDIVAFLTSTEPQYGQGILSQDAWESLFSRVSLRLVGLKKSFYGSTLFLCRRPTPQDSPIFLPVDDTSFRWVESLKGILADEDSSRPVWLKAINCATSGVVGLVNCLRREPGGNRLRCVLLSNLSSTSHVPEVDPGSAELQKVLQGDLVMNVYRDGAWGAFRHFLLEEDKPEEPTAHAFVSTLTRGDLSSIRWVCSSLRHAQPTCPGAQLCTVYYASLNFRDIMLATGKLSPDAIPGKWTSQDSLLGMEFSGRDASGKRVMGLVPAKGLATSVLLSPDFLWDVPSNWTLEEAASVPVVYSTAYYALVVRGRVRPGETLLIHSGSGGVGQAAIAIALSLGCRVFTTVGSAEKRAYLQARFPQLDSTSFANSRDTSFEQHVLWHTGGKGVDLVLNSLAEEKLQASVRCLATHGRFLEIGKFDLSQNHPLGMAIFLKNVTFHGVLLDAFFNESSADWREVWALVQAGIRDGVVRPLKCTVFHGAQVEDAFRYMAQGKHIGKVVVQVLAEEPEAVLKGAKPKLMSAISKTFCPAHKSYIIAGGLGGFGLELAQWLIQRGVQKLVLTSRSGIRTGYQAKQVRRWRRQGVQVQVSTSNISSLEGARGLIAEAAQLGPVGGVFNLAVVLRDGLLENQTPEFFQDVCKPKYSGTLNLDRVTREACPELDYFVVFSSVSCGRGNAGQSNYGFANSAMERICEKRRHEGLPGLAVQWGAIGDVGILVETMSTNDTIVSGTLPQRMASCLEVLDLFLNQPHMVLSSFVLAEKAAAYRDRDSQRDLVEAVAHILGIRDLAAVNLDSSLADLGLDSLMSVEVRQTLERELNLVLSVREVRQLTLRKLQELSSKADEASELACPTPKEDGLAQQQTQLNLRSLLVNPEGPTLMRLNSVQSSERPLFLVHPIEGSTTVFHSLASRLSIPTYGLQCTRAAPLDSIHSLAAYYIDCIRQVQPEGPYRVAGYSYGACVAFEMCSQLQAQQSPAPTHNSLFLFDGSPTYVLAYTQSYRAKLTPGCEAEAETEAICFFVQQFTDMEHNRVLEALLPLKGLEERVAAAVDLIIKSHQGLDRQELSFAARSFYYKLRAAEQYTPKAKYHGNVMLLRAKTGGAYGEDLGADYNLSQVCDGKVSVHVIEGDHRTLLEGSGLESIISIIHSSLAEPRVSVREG

Q: Which results are given for `CC1CCCCN1C(=O)COC(=O)c1cc([N+](=O)[O-])ccc1N1CCOCC1` (stereo not drawn)?
A: IC50 (Fatty acid synthase [1]): 9.09 µM (active); IC50 (Fatty acid synthase [2]): 10.9 µM (active)

Q: With `CCn1c(S)nnc1CC(C)C` as the compound, how does the AC50 (Cytochrome P450 1A2) read?
A: 22.4 µM (inconclusive)

Q: And the EC50 [3]?
A: > 260 µM (inactive)

Q: Which EC50 [3] does the source give for `CC(=O)Nc1ccc(N/C=C/C(=O)C(C)(C)C)cc1` here?
A: > 260 µM (inactive)

Q: For `CC1CCCN(S(=O)(=O)c2ccc(NC(=O)Cc3ccc(S(=O)(=O)N4CCOCC4)s3)cc2)C1` (stereo not drawn), which IC50 (Fatty acid synthase [1]) is on record?
A: 7.85 µM (active)

Q: And the IC50 (Fatty acid synthase [2])?
A: 9.35 µM (active)

Q: Which AC50 [4] does the source give for `CC(=O)c1ccc(N2CCN(S(=O)(=O)c3ccc(-c4cnc(C5CC5)o4)cc3)CC2)cc1` here?
A: 38.7 µM (active)

Q: What about the AC50 [5] of the same compound?
A: 20.8 µM (active)

Q: What about the IC50 (Fatty acid synthase [1]) of the same compound?
A: 24.4 µM (inactive)

Q: And the AC50 [6]?
A: 5.95 µM (active)

Q: And the IC50 (Fatty acid synthase [2])?
A: 11.6 µM (active)

Q: With `COC(=O)CCC(=O)COc1ccc(OC)cc1C#N` as the compound, how does the EC50 [3] read?
A: 105 µM (active)

Q: For `O=C(NCCCc1ccccc1)c1cc([N+](=O)[O-])ccc1Cl`, which IC50 (Fatty acid synthase [1]) is on record?
A: 1.1 µM (active)

Q: And the IC50 (Fatty acid synthase [2])?
A: 3.28 µM (active)

Q: For `O=C(c1ccc(Cl)c(S(=O)(=O)NCc2ccco2)c1)N1CCN(c2ccccc2F)CC1`, which EC50 [3] is on record?
A: > 260 µM (inactive)

Q: Which EC50 [3] does the source give for `COc1ccc(Cl)cc1N(CC(=O)Nc1ccccc1SC)S(C)(=O)=O` here?
A: > 260 µM (inactive)

Q: What does the source list for `Cc1cc(C(c2ccc(O)cc2)c2cc(C)c(O)cc2C)c(C)cc1O`?
A: AC50 [7]: 4.7 µM (active); EC50 (Protein RecA): 100 µM (active); CC50 [8]: 20 µM (active)

Q: With `CC(C)CCNC(=O)C1CC(c2cccc([N+](=O)[O-])c2)=NO1` (stereo not drawn) as the compound, how does the IC50 (Fatty acid synthase [1]) read?
A: 8.3 µM (active)

Q: And the IC50 (Fatty acid synthase [2])?
A: 11 µM (active)

Q: With `CC(C(=O)N1CCN(C)CC1)N1C(=O)c2ccccc2C1=O` (stereo not drawn) as the compound, how does the IC50 (Protein skinhead-1) read?
A: > 100 µM (inactive)

Q: With `C=CC[n+]1c(-c2ccc(OC)cc2)csc1NNC(=O)Nc1ccccc1` as the compound, how does the EC50 [3] read?
A: > 260 µM (inactive)

Q: With `COc1ccc(N/C=C(\C=C\C#N)S(=O)(=O)c2ccccc2)cc1` as the compound, how does the EC50 [3] read?
A: > 260 µM (inactive)

Q: Which IC50 (Fatty acid synthase [1]) does the source give for `O=C(COC(=O)c1cc([N+](=O)[O-])ccc1N1CCOCC1)NC1CCCCC1` here?
A: 0.321 µM (active)

Q: And the IC50 (Fatty acid synthase [2])?
A: 0.266 µM (active)

Q: Which EC50 [3] does the source give for `COc1ccccc1/C=C/C(=O)c1cc(Br)ccc1OC(=O)c1ccco1` here?
A: 20.5 µM (active)
